Here are results for 26 molecules from patent US9676723B2, “Factor XIa inhibitors” (Merck Sharp & Dohme Corp., priority 2014, dated 2017).

Molecules are shown by their SMILES. Structures can show the parent of a compound that is named as a salt.

T1 sequence (P03951 388-625 limits assumed): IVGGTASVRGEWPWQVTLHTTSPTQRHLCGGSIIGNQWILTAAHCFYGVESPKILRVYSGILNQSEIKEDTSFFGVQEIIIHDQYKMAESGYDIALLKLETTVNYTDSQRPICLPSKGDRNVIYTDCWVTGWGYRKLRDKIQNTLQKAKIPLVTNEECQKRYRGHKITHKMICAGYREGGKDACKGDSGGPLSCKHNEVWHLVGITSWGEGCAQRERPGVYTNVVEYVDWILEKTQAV
T1 sequence (P03951 19-387 partner limits assumed): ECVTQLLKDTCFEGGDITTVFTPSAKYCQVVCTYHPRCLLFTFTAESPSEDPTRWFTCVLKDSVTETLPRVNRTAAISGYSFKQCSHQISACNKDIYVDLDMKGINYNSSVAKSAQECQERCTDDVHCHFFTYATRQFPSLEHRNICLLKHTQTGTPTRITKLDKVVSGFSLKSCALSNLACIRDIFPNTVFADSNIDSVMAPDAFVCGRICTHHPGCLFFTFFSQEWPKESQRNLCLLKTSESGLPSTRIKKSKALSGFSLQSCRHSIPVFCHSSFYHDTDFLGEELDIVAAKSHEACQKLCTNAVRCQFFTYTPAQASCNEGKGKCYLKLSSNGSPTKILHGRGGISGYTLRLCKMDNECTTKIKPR

The experiment concerns the target T1, human Factor XIa (Homo sapiens, UniProt P03951).
T1 construct: purified human Factor XIa; purchased Sekisui Diagnostics
The experiment can be described thus: Factor XIa Assay (fluorogenic substrate Z-Gly-Pro-Arg-AFC hydrolysis). The following applies: purified human Factor XIa 40 pM; substrate Z-Gly-Pro-Arg-AFC 100 μM; 50 mM HEPES pH 7.4; read-out: hu Factor XIa Ki. In kind it is biochemical. Here is the method: The effectiveness of compounds of the present invention as inhibitors of Coagulation Factor XIa can be determined using a relevant purified serine protease, and an appropriate synthetic substrate. The rate of hydrolysis of the chromogenic or fluorogenic substrate by the relevant serine protease was measured both in the absence and presence of compounds of the present invention. Assays were conducted at room temperature or at 37° C. […] A decrease in the rate of fluorescence change in the presence of inhibitor is indicative of enzyme inhibition. Such methods are known to one skilled in the art. The results of this assay are expressed as the inhibitory constant, Ki.
Factor XIa determinations were made in 50 mM HEPES buffer at pH 7.4 containing 150 mM NaCl, 5 mM CaCl2, and 0.1% PEG 8000 (polyethylene glycol; JT Baker or Fisher Scientific). Determinations were made using purified human Factor XIa at a final concentration of 40 pM (Sekisui Diagnostics) and the synthetic substrate, Z-Gly-Pro-Arg-AFC, TFA salt (Sigma #C0980) at a concentration of 100 μM.
Activity assays were performed by diluting a stock solution of substrate at least tenfold to a final concentration ≦0.1 Km into a solution containing enzyme or enzyme equilibrated with inhibitor. Times required to achieve equilibration between enzyme and inhibitor were determined in control experiments. Initial velocities of product formation in the absence (Vo) or presence of inhibitor (Vi) were measured. Assuming competitive inhibition, and that unity is negligible compared Km/[S], [I]/e, and [I]/e (where [S], [I], and e respectively represent the total concentrations, of substrate, inhibitor and enzyme), the equilibrium constant (Ki) for dissociation of the inhibitor from the enzyme can be obtained from the dependence of Vo/Vi on [I] shown in the following equation. Vo/Vi=1+[I]/Ki
As a reminder, the Ki is the equilibrium dissociation constant of an inhibitor or competing ligand from its target. For `NCc1ccc2c(c1)CCN([C@@H](Cc1ccccc1)C(=O)Nc1ccc(C(=O)O)cc1)C2=O` [Example 1, 4-({(2S)-2-[6-(aminomethyl)-1-oxo-3,4-dihydroisoquinolin-2(1H)-yl]-3-phenylpropanoyl}amino)benzoic acid trifluoroacetate], the inhibition constant Ki is 0.044 µM. Next, `COC(=O)Nc1ccc(-c2cnc([C@H](Cc3ccccc3)N3CCc4cc(CN)ccc4C3=O)[nH]2)cc1` [Example 2, (S)-METHYL (4-(2-(1-(6-(AMINOMETHYL)-1-OXO-3,4-DIHYDROISOQUINOLIN-2(1H)-YL)-2-PHENYLETHYL)-1H-IMIDAZOL-5-YL)PHENYL)CARBAMATE 2,2,2-TRIFLUOROACETATE]: 0.116 µM; `NCc1ccc2c(c1)CN([C@@H](Cc1ccccc1)C(=O)Nc1ccc(C(=O)O)cc1)C2=O` [Example 3]: 0.308 µM. Next, `NCc1ccc2c(c1)CCN(C(Cc1ccccc1)C(=O)Nc1ccc(C(=O)O)cc1)C2=O` (centres unmarked) [Example 4]: 0.176 µM; `NCc1ccc2c(c1)CCN([C@@H](Cc1ccccc1)c1ncc(-c3ccc(C(=O)O)s3)[nH]1)C2=O` [Example 5]: 0.546 µM; `COC(=O)Nc1ccc(-c2[nH]c([C@H](Cc3ccccc3)N3CCc4cc(CN)ccc4C3=O)nc2Cl)cc1` [Example 6]: 0.014 µM. Next, `NCc1ccc2c(c1)CCN([C@@H](Cc1ccccc1)C(=O)Nc1ccc3[nH]ncc3c1)C2=O` [Example 7]: 0.246 µM.

In the case of `Cc1nc2cc(NC(=O)[C@H](Cc3ccccc3)N3CCc4cc(CN)ccc4C3=O)ccc2s1` [Example 8], the inhibition constant (Ki) came out at 0.907 µM. Next, `NCc1ccc2c(c1)CCN([C@@H](Cc1ccccc1)C(=O)Nc1cccc(F)c1)C2=O` [Example 9]: 1.08 µM; `NCc1ccc2c(c1)CCN([C@@H](Cc1ccccc1)c1ncc(-c3cccc(F)c3)[nH]1)C2=O` [Example 10]: 4.13 µM.

Regarding `COC(=O)Nc1ccc(-c2[nH]c([C@H](Cc3ccccc3)N3CCc4cc(CN)ccc4C3=O)nc2C)cc1` [Example 11], the inhibitory constant (Ki) is 0.084 µM.

Consider `NCc1ccc2c(c1)CCN([C@@H](Cc1ccccc1)c1ncc(-c3ccc4c(N)n[nH]c4c3)[nH]1)C2=O` [Example 12], for which the Ki was 0.053 µM.

Take `NCc1ccc2c(c1)CCN([C@@H](Cc1ccccc1)C(=O)Nc1ccc3c(N)n[nH]c3c1)C2=O` [Example 13]: the Ki was determined as 0.151 µM. As to `CC(C)COC(=O)Nc1ccc(-c2[nH]c([C@H](Cc3ccccc3)N3CCc4cc(CN)ccc4C3=O)nc2Cl)cc1` [Example 14], the inhibitory constant (Ki) came to 0.435 µM. On to `NCc1ccc2c(c1)CCN([C@@H](Cc1ccccc1)c1nc(Cl)c(-c3ccc(NC(=O)OC4CCCC4)cc3)[nH]1)C2=O` [Example 15], for which the Ki is 0.506 µM. `NCc1ccc2c(c1)CCN([C@@H](Cc1ccccc1)C(=O)Nc1ccc(-c3c[nH]cn3)cc1)C2=O` [Example 19]: the Ki was determined as 0.0689 µM. With `NCc1ccc2c(c1)CCN([C@@H](Cc1ccccc1)C(=O)Nc1ccc(-c3cc[nH]n3)cc1)C2=O` [Example 20], the Ki came to 0.0943 µM. As for `Cc1nnc(-c2ccc(NC(=O)[C@H](Cc3ccccc3)N3CCc4cc(CN)ccc4C3=O)cc2)[nH]1` [Example 21], the figure is 0.254 µM. `Cc1ncc(-c2ccc(NC(=O)[C@H](Cc3ccccc3)N3CCc4cc(CN)ccc4C3=O)cc2)o1` [Example 22]: the Ki came out at 0.24 µM. In the case of `Cc1ccc(-c2ccc(NC(=O)[C@H](Cc3ccccc3)N3CCc4cc(CN)ccc4C3=O)cc2)o1` [Example 23], the Ki is 1.08 µM. `NCc1ccc2c(c1)CCN([C@@H](Cc1ccccc1)C(=O)Nc1ccc3ccncc3c1)C2=O` [Example 24]: the Ki was determined as 1.08 µM. On to `NCc1ccc2c(c1)CCN([C@@H](Cc1ccccc1)C(=O)Nc1ccc(-c3cnc(C4CC4)o3)cc1)C2=O` [Example 25], for which the inhibitory constant (Ki) came to 0.221 µM. On to `Cn1ccc(-c2ccc(NC(=O)[C@H](Cc3ccccc3)N3CCc4cc(CN)ccc4C3=O)cc2)n1` [Example 26], for which the Ki was found to be 0.207 µM.

`Cc1nc2ccc(NC(=O)[C@H](Cc3ccccc3)N3CCc4cc(CN)ccc4C3=O)cc2s1` [Example 27]: the inhibition constant Ki came out at 0.284 µM. For `Cc1nsc2ccc(NC(=O)[C@H](Cc3ccccc3)N3CCc4cc(CN)ccc4C3=O)cc12` [Example 28], the inhibitory constant (Ki) was 1.47 µM. On to `COC(=O)Nc1ccc(-c2cnc([C@H](Cc3ccccc3)N3CCc4c(ccc(CN)c4C4CC4)C3=O)[nH]2)cc1` [Example 29, (S)-methyl (4-(2-(1-(6-(aminomethyl)-5-cyclopropyl-1-oxo-3,4-dihydroisoquinolin-2(1H)-yl)-2-phenylethyl)-1H-imidazol-5-yl)phenyl)carbamate 2,2,2-trifluoroacetate], for which the inhibitory constant (Ki) worked out at 0.198 µM.
